Experimental data from patent publication US20260274922A1, “SYNTHETIC ESTROGEN RECEPTOR (ER)-DERIVED PEPTIDE” (THE TEXAS A&M UNIVERSITY SYSTEM, priority 2023, published 2026).
Where no end group is shown, it is not given here. The star is where a group is joined. FITC = O=C1OC2(c3ccc(O)cc3Oc3cc(O)ccc32)c2ccc(NC(=S)*)cc21

Columns and labels:
IRS1 = target: T1, IRS1 (Homo sapiens, UniProt P35568); assay: Effect of AF1 peptide on IRS1 ubiquitination in HEK293T cells; format: cell-based
T1 sequence (P35568 1-1242): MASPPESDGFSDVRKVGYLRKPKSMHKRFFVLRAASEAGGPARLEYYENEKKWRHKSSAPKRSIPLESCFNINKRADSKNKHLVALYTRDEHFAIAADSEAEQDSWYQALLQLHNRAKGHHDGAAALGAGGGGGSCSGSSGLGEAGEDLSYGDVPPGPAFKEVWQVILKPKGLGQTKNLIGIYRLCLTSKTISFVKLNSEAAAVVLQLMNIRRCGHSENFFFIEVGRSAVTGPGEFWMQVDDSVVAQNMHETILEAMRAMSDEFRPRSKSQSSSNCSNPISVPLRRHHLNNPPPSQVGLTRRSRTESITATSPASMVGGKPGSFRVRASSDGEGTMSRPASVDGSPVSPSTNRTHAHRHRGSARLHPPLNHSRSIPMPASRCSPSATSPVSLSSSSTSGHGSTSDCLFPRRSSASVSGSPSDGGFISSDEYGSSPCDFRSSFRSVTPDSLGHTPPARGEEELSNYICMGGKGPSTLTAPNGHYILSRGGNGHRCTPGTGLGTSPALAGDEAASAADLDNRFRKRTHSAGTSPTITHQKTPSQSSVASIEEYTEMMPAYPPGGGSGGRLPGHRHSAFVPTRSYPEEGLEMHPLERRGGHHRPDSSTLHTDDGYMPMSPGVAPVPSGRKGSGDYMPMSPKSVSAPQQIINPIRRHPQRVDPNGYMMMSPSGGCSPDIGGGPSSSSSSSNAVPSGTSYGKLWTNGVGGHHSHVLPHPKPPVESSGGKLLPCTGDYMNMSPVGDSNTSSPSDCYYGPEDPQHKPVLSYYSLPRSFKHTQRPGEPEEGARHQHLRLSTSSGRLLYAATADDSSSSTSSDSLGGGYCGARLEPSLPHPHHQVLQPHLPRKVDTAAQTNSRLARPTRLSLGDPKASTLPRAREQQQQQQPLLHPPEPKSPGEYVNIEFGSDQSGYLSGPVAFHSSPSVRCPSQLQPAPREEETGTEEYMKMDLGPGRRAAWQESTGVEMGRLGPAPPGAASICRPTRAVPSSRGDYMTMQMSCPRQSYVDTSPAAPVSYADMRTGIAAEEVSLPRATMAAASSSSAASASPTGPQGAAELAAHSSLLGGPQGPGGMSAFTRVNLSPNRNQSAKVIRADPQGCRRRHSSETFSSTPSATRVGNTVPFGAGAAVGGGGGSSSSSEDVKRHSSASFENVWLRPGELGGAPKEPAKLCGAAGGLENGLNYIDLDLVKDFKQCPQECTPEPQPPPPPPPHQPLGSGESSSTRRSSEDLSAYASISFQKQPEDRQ
Source text: (§1) Co-immunoprecipitation and Western blotting analysis. […] Protein bands were detected using a ChemiDoc image system.

[1] = tested on: diet-induced obesity (DIO) mice; format: in vivo, mouse
Experimental: Obese mouse models and AF1 peptide treatment. For the high-fat diet (HFD)-induced obese mouse model, the 6-8-week-old male mice were fed with HFD (HFD; 60% kcal from fat, D12492; Research diet, New Brunswick, NJ) for 11 weeks. Then mice received 5 mg/kg body weight control or AF1 peptide through retro orbital injection (twice per week; 5 weeks). For genetic obesity mouse model, the 8-week-old db/db mice were administered with 5 mg/kg body weight control or AF1 peptide through retro orbital injection (twice per week; 5 weeks). Glucose tolerance and insulin tolerance tests were performed in the fourth and fifth week after treatment, respectively. Body composition was measured using EchoMRI™ one day before sacrificing the mice.
Glucose and insulin tolerance tests. For glucose tolerance tests, mice were fasted for 16 h and intraperitoneally (i.p.) injected with dextrose (1 g/kg body weight for mice fed with regular diet; 0.5 g/kg body weight for db/db mice or mice fed with HFD). For insulin tolerance tests, mice were fasted for 6 h and i.p. injected with insulin solution (1 U/kg body weight for male mice; 0.75 U/kg body weight for female mice). Blood glucose levels were measured using glucometer at indicated time points.
RNA extraction and quantitative real-time PCR. Total RNA was extracted from livers or primary hepatocytes using TRIzol (Invitrogen, Thermo Fisher Scientific), purified with chloroform, 80% ethanol, isopropanol, and RNA column, eluted with RNase free water, and reverse transcribed into cDNA using iScript Reverse Transcription Supermix (Bio-Rad, Hercules, CA). Quantitative real-time PCR (qPCR) was conducted using SsoAdvanced Universal SYBR Green Supermix (Bio-Rad, Hercules, CA) on CFX384 real-time PCR detection system (Bio-Rad, Hercules, CA). Q-PCR started with 95° C. incubation for 3 min, followed by 39 cycles of 95° C. for 5 s and 60° C. for 30 s. The threshold cycle (CT) values were obtained and used to calculate the relative transcriptional level of target genes by 2^−ΔΔCT method with Cyclophilin (Cyp) as an internal control. […].
Hematoxylin and eosin staining and Oil Red O staining. Livers were embedded into paraffin after being fixed by PFA, and then cut into 5 μm sections. After deparaffinization and hydration, liver sections were stained with hematoxylin for 5 min. After differentiation by 1% acid alcohol, liver sections were stained with 1% eosin for 3 min. Finally, liver sections were dehydrated and mounted with mounting media. For Oil Red O staining, liver frozen sections were prepared and fixed in 10% neutral buffered formalin for 10 min after air dry for 1 h. Liver sections were stained in Oil Red O working solution for 15 min after a quick dip in 60% isopropanol. Liver sections were then stained with hematoxylin for 3 min and covered with aqueous mounting gel. Liver sections were observed using slide scanner (Leica).
as §1
Serum lipid profile analysis. Serum triglyceride, AST, ALT, cholesterol, LDL, HDL, NEFA, and ALP were measured using DxC 700 AU Chemistry Analyzer (Beckman Coulter).
Serum insulin and liver triglyceride analysis. Serum insulin and triglyceride levels were measured by using mouse insulin ELISA kit (Mercodia) and triglyceride assay kit (Abcam), respectively.

[2] = DIO mice, 5 mg/kg twice per week, 5 weeks
[3] = DIO mice, 5 mg/kg twice per week, 5 weeks, vs CNTR

YGRKKRRQRRRTKASGMALLHEPLNRPQLKIPLERDSSKPAVYNY ({FITC}-YGRKKRRQRRRTKASGMALLHEPLNRPQLKIPLERDSSKPAVYNY) [AF1 peptide]
ubiquitination of IRS1 (IRS1): attenuated | decrease in serum NEFA ([1]; DIO mice): 21% | decrease in serum cholesterol ([1]; DIO mice): 8% | decrease in serum triglyceride ([1]; DIO mice): 21% | glucose tolerance ([1]; DIO mice): significantly improved | insulin sensitivity ([1]; DIO mice): significantly improved | serum HDL ([1]; DIO mice): decreases | serum LDL ([1]; DIO mice): decreases | serum insulin ([1]; DIO mice): not changed | overnight fasting blood glucose [1, 2]: 85.4 ± 0.2 mg/dL | random feeding blood glucose [1, 2]: 154.2 ± 4.7 mg/dL | decrease in overnight fasting blood glucose [1, 3]: 20% | decrease in random feeding blood glucose [1, 3]: 12% | liver fat accumulation ([1]; DIO mice, H&E staining): ameliorated | decrease in pIRS1-302 ([1]; DIO mice, liver): 32% | increase in IRS1 ([1]; DIO mice, liver): 49% | increase in pAKT-308 ([1]; DIO mice, liver): 51% | increase in pAKT-S473 ([1]; DIO mice, liver): 100% | mRNA expression of FAO gene (Hadha) ([1]; DIO mice, liver, q-PCR): increased | mRNA expression of gluconeogenic gene (Pck1) ([1]; DIO mice, liver, q-PCR): significantly decreased | mRNA expression of inflammatory cytokine (Il6) ([1]; DIO mice, liver, q-PCR): significantly decreased | mRNA expression of lipogenic gene (Fasn) ([1]; DIO mice, liver, q-PCR): significantly decreased | serum ALP ([1]; mouse, in vivo): not changed | serum ALT ([1]; mouse, in vivo): not changed | serum AST ([1]; mouse, in vivo): not changed
